The results in this text go back to ChEMBL document CHEMBL1201862, “PubChem BioAssay data set” (2004).

Broadly, the CC50 is the concentration at which the toxic effect on the cells reaches its halfway point. A word on the IC50: it is the concentration that gives 50% inhibition. Usually EC50 stands for the concentration at which the effect is half-maximal. The AC50 is the midpoint of the concentration-response curve, whichever way the signal moves. As a reminder, the Ki is a dissociation constant, usually derived from enzyme kinetics or from competition with a known ligand.

The nature of test [1]: THP-1 cell cytotoxicity, dose response, cytotoxicity control for non-replicating M. tuberculosis project (AID 489025). The format is functional.
Test [2] deals with T1, Sphingosine 1-phosphate receptor 4 (Homo sapiens, UniProt O95977).
T1 sequence (O95977 whole entry): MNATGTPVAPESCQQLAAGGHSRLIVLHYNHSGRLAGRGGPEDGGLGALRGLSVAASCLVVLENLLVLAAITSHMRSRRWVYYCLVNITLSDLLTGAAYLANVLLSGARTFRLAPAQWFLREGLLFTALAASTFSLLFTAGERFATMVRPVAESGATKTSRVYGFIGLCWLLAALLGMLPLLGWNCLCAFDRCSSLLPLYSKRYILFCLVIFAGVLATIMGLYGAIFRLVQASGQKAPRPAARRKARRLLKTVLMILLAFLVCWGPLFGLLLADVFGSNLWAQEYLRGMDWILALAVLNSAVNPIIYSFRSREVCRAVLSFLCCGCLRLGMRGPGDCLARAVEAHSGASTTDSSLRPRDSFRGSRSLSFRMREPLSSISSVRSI
Put plainly: Late stage fluorescence dose response cell-based screening assay for antagonists of the Sphingosine 1-Phosphate Receptor 4 (S1P4). [Related pubchem assays: 1524 (Confirmation screen (S1P4 antagonists).), 1510 (Primary screen (S1P4 antagonists).), 1853 (Summary AID (S1P4 antagonists).), 1692 (Dose response screen (S1P4 antagonists).)]. The class given is functional.

A further test relates to Streptococcus. Put plainly: GAS UMAA2166 growth inhibition – luminescence, BacTiterGlo, counter-screen for streptokinase expression inhibitor project, dose response (AID 1915).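 Also: potency for reduction of bacterial viability or growth.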 The format is functional, organism-based. (In general: Counterscreens check selectivity or assay interference.)
A further test addresses Protein Rev (Human immunodeficiency virus type 1 group M subtype B (isolate HXB2)(HIV-1), UniProt P04618). Put plainly: blockers of HIV Rev/RRE RNA complex – biochemical, fluorescence polarization, HIV-1, dose response (AID 434976). The arrangement: species or system Human immunodeficiency virus 1. A general note: Fluorescence polarisation rises when a labelled molecule tumbles more slowly, as on binding a larger partner.

Test [3] is described as follows: blockers of HIV-1 envelope-mediated cell-cell fusion – cherry-pick, dose response (AID 652057). The format is functional, cell-based.
In test [4] the target is T2, 1-phosphatidylinositol 4,5-bisphosphate phosphodiesterase gamma-1 (Homo sapiens, UniProt P19174).
T2 sequence (P19174 whole entry): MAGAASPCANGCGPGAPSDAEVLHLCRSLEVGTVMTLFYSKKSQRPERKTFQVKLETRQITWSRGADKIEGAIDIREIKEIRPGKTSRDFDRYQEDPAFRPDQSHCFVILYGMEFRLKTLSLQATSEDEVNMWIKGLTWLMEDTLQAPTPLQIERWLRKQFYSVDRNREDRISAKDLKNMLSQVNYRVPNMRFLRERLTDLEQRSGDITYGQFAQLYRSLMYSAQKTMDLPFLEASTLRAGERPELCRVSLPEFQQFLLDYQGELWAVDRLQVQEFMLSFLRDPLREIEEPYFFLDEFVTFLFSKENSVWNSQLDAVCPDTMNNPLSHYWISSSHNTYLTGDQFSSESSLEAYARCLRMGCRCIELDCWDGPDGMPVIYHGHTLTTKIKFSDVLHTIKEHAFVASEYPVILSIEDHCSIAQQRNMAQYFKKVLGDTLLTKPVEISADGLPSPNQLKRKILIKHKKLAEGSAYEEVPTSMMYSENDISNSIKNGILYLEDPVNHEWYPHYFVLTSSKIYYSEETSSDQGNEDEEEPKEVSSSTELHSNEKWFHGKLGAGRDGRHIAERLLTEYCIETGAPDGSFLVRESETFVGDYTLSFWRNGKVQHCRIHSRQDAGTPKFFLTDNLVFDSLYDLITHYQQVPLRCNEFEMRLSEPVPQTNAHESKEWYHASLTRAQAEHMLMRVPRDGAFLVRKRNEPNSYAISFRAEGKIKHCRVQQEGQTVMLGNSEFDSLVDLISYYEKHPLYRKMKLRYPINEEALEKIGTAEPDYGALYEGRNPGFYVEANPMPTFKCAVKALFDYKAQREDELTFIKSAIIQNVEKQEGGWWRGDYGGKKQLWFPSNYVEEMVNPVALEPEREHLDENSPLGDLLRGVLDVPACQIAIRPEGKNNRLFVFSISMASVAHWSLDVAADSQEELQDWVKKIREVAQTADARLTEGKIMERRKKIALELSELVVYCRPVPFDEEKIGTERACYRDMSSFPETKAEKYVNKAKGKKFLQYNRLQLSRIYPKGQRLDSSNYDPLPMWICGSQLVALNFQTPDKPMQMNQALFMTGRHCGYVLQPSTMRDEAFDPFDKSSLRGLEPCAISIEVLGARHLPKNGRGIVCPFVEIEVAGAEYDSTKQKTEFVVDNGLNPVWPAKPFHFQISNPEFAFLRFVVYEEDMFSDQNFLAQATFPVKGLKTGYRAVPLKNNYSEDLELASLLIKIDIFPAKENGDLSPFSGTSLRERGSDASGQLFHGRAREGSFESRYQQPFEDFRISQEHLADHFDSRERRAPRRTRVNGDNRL
Put plainly: Counterscreen for inhibitors of phospholipase C isozymes (PLC-B3): Fluorescence-based biochemical high throughput dose response assay to identify inhibitors of phospholipase C isozymes (PLC-gamma1).

Test [5] in a line: reduction of Shn3 3'UTR-driven luciferase in osteoblasts – cell-based, Clone20 osteoblasts, firefly luciferase, cherry-picked, dose response (AID 624132).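 Also: firefly luciferase luminescence from reporter carrying the Shn3 3'UTR in osteoblasts.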 The format is functional.
In test [6] the target is Mitogen-activated protein kinase 9 (Homo sapiens, UniProt P45984). The class given is functional.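 Also: value from a kinome panel profiling assay, MAPK9 panel entry.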
Mitogen-activated protein kinase 9, sequence (P45984 whole entry): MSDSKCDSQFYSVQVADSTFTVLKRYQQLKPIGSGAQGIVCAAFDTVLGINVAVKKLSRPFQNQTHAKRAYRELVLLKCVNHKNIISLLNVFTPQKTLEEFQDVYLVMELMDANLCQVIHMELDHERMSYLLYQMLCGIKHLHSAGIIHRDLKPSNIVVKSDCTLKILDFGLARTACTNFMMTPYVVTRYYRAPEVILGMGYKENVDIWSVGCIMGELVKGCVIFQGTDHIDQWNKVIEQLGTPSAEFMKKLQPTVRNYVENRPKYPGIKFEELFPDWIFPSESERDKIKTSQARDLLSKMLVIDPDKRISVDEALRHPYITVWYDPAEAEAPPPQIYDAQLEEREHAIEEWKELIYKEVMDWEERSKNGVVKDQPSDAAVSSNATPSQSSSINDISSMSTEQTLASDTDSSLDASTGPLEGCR
Test [7] concerns the target Ribosomal protein S6 kinase alpha-3 (Homo sapiens, UniProt P51812). The class given is functional.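 Also: measured within a kinome-wide profiling panel.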
The target of test [8] is Non-receptor tyrosine-protein kinase TYK2 (Homo sapiens, UniProt P29597). The format is functional.
Non-receptor tyrosine-protein kinase TYK2, sequence (P29597 whole entry): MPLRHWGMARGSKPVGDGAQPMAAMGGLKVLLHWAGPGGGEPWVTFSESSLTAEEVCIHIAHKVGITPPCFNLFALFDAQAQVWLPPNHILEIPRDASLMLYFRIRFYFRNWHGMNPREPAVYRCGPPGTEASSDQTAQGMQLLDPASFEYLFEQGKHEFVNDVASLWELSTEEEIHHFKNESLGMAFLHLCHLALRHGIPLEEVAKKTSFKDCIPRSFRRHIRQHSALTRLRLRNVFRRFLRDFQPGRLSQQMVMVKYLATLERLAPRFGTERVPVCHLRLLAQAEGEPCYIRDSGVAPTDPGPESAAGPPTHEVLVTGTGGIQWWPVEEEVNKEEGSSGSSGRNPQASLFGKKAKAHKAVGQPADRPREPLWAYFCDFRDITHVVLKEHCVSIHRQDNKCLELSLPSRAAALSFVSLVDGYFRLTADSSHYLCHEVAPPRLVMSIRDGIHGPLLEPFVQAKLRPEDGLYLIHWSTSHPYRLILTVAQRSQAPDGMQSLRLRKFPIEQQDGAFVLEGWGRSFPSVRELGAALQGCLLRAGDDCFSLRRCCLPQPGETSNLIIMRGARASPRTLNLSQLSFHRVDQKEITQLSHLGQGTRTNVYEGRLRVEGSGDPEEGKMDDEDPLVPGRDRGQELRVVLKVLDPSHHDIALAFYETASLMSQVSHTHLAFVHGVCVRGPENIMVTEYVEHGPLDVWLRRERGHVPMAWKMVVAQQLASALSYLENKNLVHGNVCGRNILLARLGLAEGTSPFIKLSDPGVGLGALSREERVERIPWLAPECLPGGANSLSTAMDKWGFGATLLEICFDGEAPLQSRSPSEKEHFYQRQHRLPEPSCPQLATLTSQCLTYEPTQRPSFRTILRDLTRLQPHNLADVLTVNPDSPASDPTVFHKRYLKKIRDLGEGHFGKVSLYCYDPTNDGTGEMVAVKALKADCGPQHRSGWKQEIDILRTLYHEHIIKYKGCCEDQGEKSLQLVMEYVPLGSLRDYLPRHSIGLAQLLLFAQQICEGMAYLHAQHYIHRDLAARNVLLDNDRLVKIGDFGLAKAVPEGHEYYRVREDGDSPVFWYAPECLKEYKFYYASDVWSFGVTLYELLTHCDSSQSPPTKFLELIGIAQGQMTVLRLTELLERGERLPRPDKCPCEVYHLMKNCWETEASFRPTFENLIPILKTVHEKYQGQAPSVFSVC
Test [9] deals with High affinity nerve growth factor receptor (Homo sapiens, UniProt P04629). The format is functional.
High affinity nerve growth factor receptor, sequence (P04629 whole entry): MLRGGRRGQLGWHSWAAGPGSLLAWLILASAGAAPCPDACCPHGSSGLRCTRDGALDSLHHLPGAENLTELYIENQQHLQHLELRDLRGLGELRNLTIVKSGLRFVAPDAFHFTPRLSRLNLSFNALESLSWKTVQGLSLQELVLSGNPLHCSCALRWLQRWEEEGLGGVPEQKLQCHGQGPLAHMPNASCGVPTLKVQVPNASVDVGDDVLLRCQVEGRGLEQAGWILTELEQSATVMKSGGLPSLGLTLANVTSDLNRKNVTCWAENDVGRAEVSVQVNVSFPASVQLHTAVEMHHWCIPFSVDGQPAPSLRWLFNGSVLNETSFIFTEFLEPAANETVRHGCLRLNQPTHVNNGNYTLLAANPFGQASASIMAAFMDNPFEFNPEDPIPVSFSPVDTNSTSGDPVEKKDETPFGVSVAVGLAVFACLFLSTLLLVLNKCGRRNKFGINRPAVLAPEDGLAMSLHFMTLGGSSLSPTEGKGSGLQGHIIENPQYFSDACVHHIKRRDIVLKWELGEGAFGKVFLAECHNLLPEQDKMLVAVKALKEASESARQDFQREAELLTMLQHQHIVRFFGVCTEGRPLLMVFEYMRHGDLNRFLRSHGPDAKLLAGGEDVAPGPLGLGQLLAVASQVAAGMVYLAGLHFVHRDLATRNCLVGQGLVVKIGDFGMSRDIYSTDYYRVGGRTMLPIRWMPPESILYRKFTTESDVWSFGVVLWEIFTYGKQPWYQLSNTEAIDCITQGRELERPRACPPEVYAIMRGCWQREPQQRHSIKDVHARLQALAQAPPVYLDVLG
For test [10], the target named is T3, Mannose-6-phosphate isomerase (Homo sapiens, UniProt P34949).
T3 sequence (P34949 whole entry): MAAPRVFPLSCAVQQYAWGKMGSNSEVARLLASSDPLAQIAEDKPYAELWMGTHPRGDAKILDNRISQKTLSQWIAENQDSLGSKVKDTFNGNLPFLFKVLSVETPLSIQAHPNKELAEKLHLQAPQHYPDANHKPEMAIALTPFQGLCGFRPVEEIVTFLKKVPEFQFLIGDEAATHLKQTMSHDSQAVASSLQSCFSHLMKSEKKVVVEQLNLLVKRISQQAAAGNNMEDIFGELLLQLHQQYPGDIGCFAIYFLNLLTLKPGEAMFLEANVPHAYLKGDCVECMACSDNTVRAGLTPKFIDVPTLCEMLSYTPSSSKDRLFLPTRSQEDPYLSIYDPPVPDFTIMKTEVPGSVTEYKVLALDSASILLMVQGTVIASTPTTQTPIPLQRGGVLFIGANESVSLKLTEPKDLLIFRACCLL
Put plainly: MPI inhibition at elevated mannose 6-phosphate – biochemical, fluorescence intensity, high mannose 6-phosphate, primary screen (AID 1220).

The target in test [11] is Calcium/calmodulin-dependent protein kinase type II subunit alpha (Homo sapiens, UniProt Q9UQM7). Put plainly: Navigating the Kinome. Panel member name: CAMK2A. The class given is functional.
Calcium/calmodulin-dependent protein kinase type II subunit alpha, sequence (Q9UQM7 whole entry): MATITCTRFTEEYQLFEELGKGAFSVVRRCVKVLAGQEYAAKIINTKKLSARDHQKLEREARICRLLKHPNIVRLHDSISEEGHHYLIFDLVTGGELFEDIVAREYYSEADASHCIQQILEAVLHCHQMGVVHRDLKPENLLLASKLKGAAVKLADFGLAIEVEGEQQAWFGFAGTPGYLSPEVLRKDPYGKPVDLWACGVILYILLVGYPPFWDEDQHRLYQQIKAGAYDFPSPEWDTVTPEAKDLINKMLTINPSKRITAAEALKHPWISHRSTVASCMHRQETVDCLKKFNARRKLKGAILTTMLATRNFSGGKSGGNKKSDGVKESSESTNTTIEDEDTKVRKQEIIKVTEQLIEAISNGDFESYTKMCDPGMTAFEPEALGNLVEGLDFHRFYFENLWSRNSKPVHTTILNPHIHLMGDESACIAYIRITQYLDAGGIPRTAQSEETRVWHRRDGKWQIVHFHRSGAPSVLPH

Calls of active or inactive are those of the source.

Ribosomal protein S6 kinase alpha-3, sequence (P51812 whole entry): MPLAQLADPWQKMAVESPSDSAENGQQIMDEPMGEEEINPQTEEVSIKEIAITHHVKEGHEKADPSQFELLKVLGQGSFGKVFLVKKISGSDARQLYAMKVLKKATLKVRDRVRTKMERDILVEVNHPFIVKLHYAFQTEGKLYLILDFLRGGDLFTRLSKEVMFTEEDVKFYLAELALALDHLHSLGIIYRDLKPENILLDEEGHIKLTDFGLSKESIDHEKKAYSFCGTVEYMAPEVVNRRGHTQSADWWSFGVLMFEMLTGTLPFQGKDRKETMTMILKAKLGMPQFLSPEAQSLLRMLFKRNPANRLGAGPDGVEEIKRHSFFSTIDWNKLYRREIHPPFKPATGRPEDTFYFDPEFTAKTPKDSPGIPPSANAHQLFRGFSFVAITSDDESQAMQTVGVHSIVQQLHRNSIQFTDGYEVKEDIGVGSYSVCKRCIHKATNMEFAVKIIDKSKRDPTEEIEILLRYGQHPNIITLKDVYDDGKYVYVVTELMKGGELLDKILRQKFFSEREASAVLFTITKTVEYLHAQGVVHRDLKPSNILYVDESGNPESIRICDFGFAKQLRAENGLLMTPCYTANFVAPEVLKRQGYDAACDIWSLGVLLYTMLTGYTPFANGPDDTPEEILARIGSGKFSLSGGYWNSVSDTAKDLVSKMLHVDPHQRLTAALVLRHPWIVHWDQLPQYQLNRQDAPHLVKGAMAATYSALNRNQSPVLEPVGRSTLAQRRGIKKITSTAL
Protein Rev, sequence (P04618 whole entry): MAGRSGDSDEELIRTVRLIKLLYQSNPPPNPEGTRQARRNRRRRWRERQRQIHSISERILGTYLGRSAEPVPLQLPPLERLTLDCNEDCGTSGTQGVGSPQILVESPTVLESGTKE

`COC(=O)CCS(=O)(=O)c1nc(-c2ccccc2)cc(C(F)(F)F)n1`: in test [1], the CC50 was 25.2 µM (active). The half-inhibitory concentration (IC50) in [2] is 3.45 µM (not active).
As to `O=C(O)c1ccc2c3c(ncnc13)-c1ccccc1C2=O`, the EC50 with Streptococcus is recorded as > 150 µM (not active). Further, on Protein Rev, the IC50 is 9.78 µM (active).
Turning to `CCOC(=O)c1c2c(n(Cc3ccccc3)c1C)C(=O)C(=O)c1ccccc1-2`, the AC50 in test [3] was 6.28 µM (active); in [5] it was 2.3 µM (active). Moreover, the IC50 in test [4] was 28.3 µM (inactive).
With `Cc1ccc2nccc(NC(=O)Nc3cccc(C(F)(F)F)n3)c2c1`, the Ki in [6] was > 3.98 µM (inactive); in [7], > 5.01 µM (inactive); in [8] it was > 2 µM (inactive); in test [9], > 2.51 µM (inactive).
With `Cc1c(/N=C2\C=CC(=O)c3ccccc32)c(=O)n(-c2ccccc2)n1C`, the IC50 in test [10] is 46.4 µM (active).
`COc1cc2c(cc1F)C(c1ccccc1Cl)=Nc1c(n[nH]c1C)N2` [RG-1530]: the Ki in [11] was > 6.31 µM (inactive).
